Experimental data published in patent US6429202B1, “Phospholipid complexes of proanthocyanidin A2 as antiatherosclerotic agents” (Indena S.p.A., priority 1998, dated 2002).

Test system: atherosclerotic lesions on thoracic and abdominal aorta
Assay: Atherosclerotic lesions in rabbits fed a hypercholesterolemic diet
Format: in vivo, New Zealand rabbits
Details: hypercholesterolemic diet (0.2% w/w cholesterol), substance in diet, 8 week-treatment, aorta stained with Sudan IV
Excerpt: The complexes of the invention dose-dependently prevent or reduce the formation of, atherosclerotic plaques. The activity was evidenced in rabbits fed with a hypercholesterolemic diet so as to induce atherosclerotic lesions similar to the human ones at the vasal level, particularly at the aortal arch, ventral aorta, carotids and cerebral vessels. In said model, the above mentioned phospholipid complexes change the macro- and microscopical vascular condition reducing, compared with untreated animals, both the number and the severity of the atheromatous plagues, with surprising vascular-tissutal benefit.
32 New Zealand rabbits were divided in 4 groups of 8 animals each, and treated as follows:
Group 1): Control, normal diet
Group 2): Hypercholesterolemic diet (0.2% w/w cholesterol)
Group 3): Hypercholesterolemic diet+phospholipid complex of proanthocyanidin A2 extract (0.2% cholesterol+2% w/w complex of Example 1).
Group 4): Hypercholesterolemic diet+proanthocyanidin A2 extract (0.2% cholesterol+amount of proanthocyanidin A2 equivalent to that present in 2% w/w of the complex of Example 1). After 8 week-treatment, during which cholesterol, LDL/VLDL, HDL and triglycerids levels were measured, the animals were killed.
The number, size and distribution of the atherosclerotic lesions on thoracic and abdominal aorta were evaluated. […]

Oc1cc(O)c2c(c1)O[C@@]1(c3ccc(O)c(O)c3)Oc3cc(O)c4c(c3C2[C@H]1O)OC(c1ccc(O)c(O)c1)[C@H](O)C4 (stereo partly shown) [proanthocyanidin A2]
area percent of the lesion: 30%
